Results reported in US6403794B2, “Substituted 2-amino-4-alkylamino-1,3,5-triazines as herbicides” (Bayer Aktiengesellschaft, priority 1996, dated 2002).
Read-outs that look alike come from different tables or passages of the source.

Key:
Assay type in all cases: in vivo
Sinapis = test: Post-emergence test; settings: greenhouse, 1000 g of ai./ha, after three weeks
Protocol: (§1) Solvent: 5 parts by weight of acetone
(§2) Emulsifier: 1 part by weight of alkylaryl polyglycol ether
(§3) To produce a suitable preparation of active compound, 1 part by weight of active compound is mixed with the stated amount of solvent, the stated amount of emulsifier is added and the concentrate is diluted with water to the desired concentration.
(§4) Test plants which have a height of 5-15 cm are sprayed with the preparation of active compound such that the particular amounts of active compounds desired are applied per unit area. The concentration of the spray liquor is chosen so that the particular amounts of active compound desired are applied in 1000 l of water/ha.
(§5) After three weeks, the degree of damage to the plants is scored visually in % damage, in comparison to the untreated control.
(§6) 0%=no effect (like untreated control)

weeds [1] = test: Post-emergence test
Protocol: as §1, §2, §3, §4, §5, §6

Avena fatua = test: Post-emergence test; settings: greenhouse, 1000 g of ai./ha, after three weeks
Protocol: as §1, §2, §3, §4, §5, §6

Cyperus = test: Post-emergence test; settings: greenhouse, 1000 g of ai./ha, after three weeks
Protocol: as §1, §2, §3, §4, §5, §6

Xanthium = test: Post-emergence test; settings: greenhouse, 1000 g of ai./ha, after three weeks
Protocol: as §1, §2, §3, §4, §5, §6

Amaranthus [2] = test: Post-emergence test; settings: for pest or weed control at 1000 g/ha / pest or weed control at 500 g/ha: Amaranthus, 504 h, read-out: degree of damage to the plants (% damage), Amaranthus; for pest or weed control at 500 g/ha: 500 g of ai./ha
Protocol: as §1, §2, §3, §4, §5, §6

Abutilon [3] = test: Post-emergence test; settings: greenhouse, 1000 g of ai./ha, after three weeks
Protocol: as §1, §2, §3, §4, §5, §6

Setaria [4] = test: Post-emergence test; settings: for pest or weed control at 1000 g/ha / pest or weed control at 500 g/ha: Setaria, 504 h, read-out: degree of damage to the plants (% damage), Setaria; for pest or weed control at 500 g/ha: 500 g of ai./ha
Protocol: as §1, §2, §3, §4, §5, §6

Alopecurus [5] = test: Post-emergence test; settings: greenhouse, 1000 g of ai./ha, after three weeks
Protocol: as §1, §2, §3, §4, §5, §6

Solanum = test: Post-emergence test; settings: greenhouse, 500 g of ai./ha, after three weeks
Protocol: as §1, §2, §3, §4, §5, §6

Echinochloa = test: Post-emergence test; settings: greenhouse, 500 g of ai./ha, after three weeks
Protocol: as §1, §2, §3, §4, §5, §6

Polygonum = test: Post-emergence test; settings: greenhouse, 500 g of ai./ha, after three weeks
Protocol: as §1, §2, §3, §4, §5, §6

Ipomoea = test: Post-emergence test; settings: greenhouse, 500 g of ai./ha, after three weeks
Protocol: as §1, §2, §3, §4, §5, §6

weeds [6] = test: Pre-emergence test
Protocol: as §1, §2, §3
(§7) Seeds of the test plants are sown in normal soil. After about 24 hours, the soil is watered with the preparation of active compound. The amount of water per unit area is advantageously kept constant. The concentration of active compound in the preparation is immaterial, only the application rate of active compound per unit area matters.
(§8) After three weeks, the degree of damage to the plants is scored visually in % damage in comparison to the development of the untreated control.
as §6

Galium [7] = test: Pre-emergence test; settings: greenhouse, 1000 g of ai./ha, after three weeks
Protocol: as §1, §2, §3, §7, §8, §6

Amaranthus [8] = test: Pre-emergence test; settings: for pest or weed control at 1000 g/ha: Amaranthus, 504 h, read-out: degree of damage to the plants (% damage), Amaranthus
Protocol: as §1, §2, §3, §7, §8, §6

Abutilon [9] = test: Pre-emergence test; settings: for pest or weed control at 1000 g/ha: Abutilon, 504 h, read-out: degree of damage to the plants (% damage), Abutilon
Protocol: as §1, §2, §3, §7, §8, §6

Alopecurus [10] = test: Pre-emergence test; settings: greenhouse, 1000 g of ai./ha, after three weeks
Protocol: as §1, §2, §3, §7, §8, §6

Setaria [11] = test: Pre-emergence test; settings: greenhouse, 1000 g of ai./ha, after three weeks
Protocol: as §1, §2, §3, §7, §8, §6

Galium [12] = test: Post-emergence test; settings: greenhouse, 1000 g of ai./ha, after three weeks
Protocol: as §1, §2, §3, §4, §5, §6

Wheat = test: Post-emergence test; settings: greenhouse, 500 g of ai./ha, after three weeks
Protocol: as §1, §2, §3, §4, §5, §6

[13] = greenhouse, 1000 g of ai./ha, after three weeks

SMILES | activity against weeds (weeds [1]) | degree of damage to the plants (% damage), Xanthium (Xanthium) | degree of damage to the plants (% damage), Abutilon (Abutilon [3]) | degree of damage to the plants (% damage), Alopecurus (Alopecurus [5]) | activity against weeds (weeds [6]) | degree of damage to the plants (% damage), Galium (Galium [7]) | degree of damage to the plants (% damage), Alopecurus (Alopecurus [10]) | degree of damage to the plants (% damage), Galium (Galium [12]) | other results
CCC(CCc1cccs1)Nc1nc(N)nc(C(C)F)n1 (stereo not drawn) [Example 23] | strong activity | 100% | 100% | 90% | – | – | – | – | degree of damage to the plants (% damage), Sinapis (Sinapis): 100%; degree of damage to the plants (% damage), Avena fatua (Avena fatua): 100%; degree of damage to the plants (% damage), Cyperus (Cyperus): 100%; pest or weed control at 1000 g/ha (Amaranthus [2]; [13]): 100%; pest or weed control at 1000 g/ha (Setaria [4]; [13]): 100%
CCC(CCc1cccs1)Nc1nc(N)nc(C(C)(C)F)n1 (stereo not drawn) [Example 24] | strong activity | – | – | – | – | – | – | – | degree of damage to the plants (% damage), Solanum (Solanum): 95%; degree of damage to the plants (% damage), Echinochloa (Echinochloa): 100%; pest or weed control at 500 g/ha (Amaranthus [2]; greenhouse, after three weeks): 100%; degree of damage to the plants (% damage), Polygonum (Polygonum): 95%; degree of damage to the plants (% damage), Ipomoea (Ipomoea): 100%; pest or weed control at 500 g/ha (Setaria [4]; greenhouse, after three weeks): 80%
CC(C)C(CCc1ccc(Cl)cc1)Nc1nc(N)nc(C(C)(C)F)n1 (stereo not drawn) [Example 29] | – | – | – | – | strong activity | 80% | 70% | – | pest or weed control at 1000 g/ha (Amaranthus [8]): 80%; pest or weed control at 1000 g/ha (Abutilon [9]): 80%
CCC(CCc1ccccc1)Nc1nc(N)nc(C(F)(F)F)n1 (stereo not drawn) [Example 41] | strong activity | 100% | 100% | 80% | strong activity | 95% | 90% | 100% | pest or weed control at 1000 g/ha (Amaranthus [8]; [13]): 100%; pest or weed control at 1000 g/ha (Abutilon [9]; [13]): 100%; degree of damage to the plants (% damage), Setaria (Setaria [11]): 100%; pest or weed control at 1000 g/ha (Amaranthus [2]; [13]): 100%; pest or weed control at 1000 g/ha (Setaria [4]; [13]): 100%
CCC(CCc1ccccc1)Nc1nc(N)nc(C(F)(F)F)n1 (stereo not drawn) [Example 43] | strong activity | 100% | 100% | – | – | – | – | 70% | degree of damage to the plants (% damage), Solanum (Solanum): 100%; pest or weed control at 500 g/ha (Amaranthus [2]; greenhouse, after three weeks): 100%; degree of damage to the plants (% damage), Amaranthus (Amaranthus [2]; [13]): 100%; degree of damage to the plants (% damage), Polygonum (Polygonum): 100%; degree of damage to the plants (% damage), Ipomoea (Ipomoea): 100%; pest or weed control at 500 g/ha (Setaria [4]; greenhouse, after three weeks): 90%; degree of damage to the plants (% damage), Setaria (Setaria [4]; [13]): 100%; degree of damage to the plants (% damage), Wheat (Wheat): 10%
CCC(COc1ccc(Cl)cc1)Nc1nc(N)nc(C(F)(F)F)n1 (stereo not drawn) [Example 44] | strong activity | 100% | 100% | 80% | – | – | – | 80% | pest or weed control at 1000 g/ha (Amaranthus [2]): 100%; pest or weed control at 1000 g/ha (Setaria [4]): 100%
CCC(CCc1ccccc1)Nc1nc(N)nc(C(F)(F)F)n1 (stereo not drawn) [Example 45] | strong activity | 80% | 100% | 80% | strong activity | 100% | 80% | 100% | degree of damage to the plants (% damage), Amaranthus (Amaranthus [8]; [13]): 100%; degree of damage to the plants (% damage), Abutilon (Abutilon [9]; [13]): 100%; degree of damage to the plants (% damage), Setaria (Setaria [11]): 95%; degree of damage to the plants (% damage), Amaranthus (Amaranthus [2]; [13]): 100%; degree of damage to the plants (% damage), Setaria (Setaria [4]; [13]): 100%
